Reference: patent US7579356B2, “Thia-tetraazaacenaphthylene kinase inhibitors” (Janssen Pharmaceutica NV, priority 2005, dated 2009)

What was measured:
Format in all cases: biochemical
EGFR = molecular target: T1, EGFR (Homo sapiens, UniProt P00533); assay: EGFR Kinase Assay; conditions: for IC50: GST-EGFR, ATP 5 μM; for inhibition at 2 µM: test concentration of 2 μM, compounds without an IC50, read-out: EGFR inhibition in percent
T1 construct: The intracellular portion of EGFR started at nucleotide 2189 (corresponding to amino acid 667) and ended at the termination codon; made in house; host or cells: Sf9 insect cells (baculovirus)
T1 sequence (P00533 669-1210 limits assumed): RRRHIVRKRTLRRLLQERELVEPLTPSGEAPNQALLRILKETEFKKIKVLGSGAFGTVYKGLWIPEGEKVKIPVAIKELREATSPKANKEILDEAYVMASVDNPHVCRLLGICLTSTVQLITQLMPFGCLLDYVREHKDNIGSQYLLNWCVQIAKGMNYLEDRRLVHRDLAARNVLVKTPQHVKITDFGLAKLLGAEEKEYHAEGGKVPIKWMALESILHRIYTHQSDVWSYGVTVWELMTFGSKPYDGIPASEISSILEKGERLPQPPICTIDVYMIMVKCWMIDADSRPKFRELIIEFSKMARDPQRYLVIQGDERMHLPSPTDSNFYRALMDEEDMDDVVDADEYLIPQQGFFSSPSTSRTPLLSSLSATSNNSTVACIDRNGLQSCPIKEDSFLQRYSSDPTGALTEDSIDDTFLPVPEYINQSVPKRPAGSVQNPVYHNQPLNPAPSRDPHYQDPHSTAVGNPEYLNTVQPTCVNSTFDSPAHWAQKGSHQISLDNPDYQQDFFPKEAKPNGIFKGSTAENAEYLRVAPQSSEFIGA
Summary of the method: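 GST-fused human EGFR intracellular domain (from aa 667), Sf9-expressed, phosphorylated biotinylated polyGluTyr with 5 μM ATP plus γ-33P ATP in Tris pH 8.0, MgCl2, vanadate, 1 mM DTT, 1 h at 30 °C. Streptavidin Flashplate scintillation read; triplicate 16-point half-log series from 200 uM; IC50 from % inhibition vs log concentration, else % inhibition at 2 μM.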

HER-2 = molecular target: T2, HER-2 (Homo sapiens, UniProt P04626); assay: HER-2 Kinase Assay; conditions: for IC50: value in parentheses; for inhibition at 1 µM: test concentration of 1 μM
T2 construct: His6 with thrombin site (N); purchased Proqinase (Freiburg, Germany)
T2 sequence (P04626 679-1255): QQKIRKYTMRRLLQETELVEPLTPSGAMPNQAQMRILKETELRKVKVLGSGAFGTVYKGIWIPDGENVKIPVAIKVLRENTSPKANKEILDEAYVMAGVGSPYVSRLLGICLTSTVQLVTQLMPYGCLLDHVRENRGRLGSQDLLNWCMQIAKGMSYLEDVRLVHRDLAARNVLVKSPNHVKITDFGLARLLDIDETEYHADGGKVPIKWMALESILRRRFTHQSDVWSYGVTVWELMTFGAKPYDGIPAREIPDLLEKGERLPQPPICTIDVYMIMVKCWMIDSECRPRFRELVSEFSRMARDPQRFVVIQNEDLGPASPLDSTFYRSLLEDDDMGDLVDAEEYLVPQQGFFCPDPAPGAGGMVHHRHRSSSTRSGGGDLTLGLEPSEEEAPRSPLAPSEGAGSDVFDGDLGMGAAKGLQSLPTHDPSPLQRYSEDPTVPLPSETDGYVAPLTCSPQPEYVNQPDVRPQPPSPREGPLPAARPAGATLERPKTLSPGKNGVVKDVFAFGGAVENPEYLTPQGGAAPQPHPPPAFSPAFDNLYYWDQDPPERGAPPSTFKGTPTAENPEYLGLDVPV
Summary of the method: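 GST/HIS6-tagged HER-2 aa 679–1255 kinase with biotinylated polyGluTyr (1.5 ng/μL), 1 μM ATP plus γ-33P-ATP, Mg2+/Mn2+, DTT, Hepes pH 7.5; 1 h at 30 °C. Substrate phosphorylation captured on streptavidin scintillation plates after EDTA/PBS washes; values are % inhibition at 1 μM or IC50.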

c-Src kinase (human) = molecular target: T3, c-Src kinase (human) (Homo sapiens, UniProt P12931); assay: c-Src Kinase Assay; conditions: test concentration of 2 μM; multiple values are separate assay results
T3 construct: purchased Upstate Biotechnology, Lake Placid, N.Y
T3 sequence (P12931 whole entry): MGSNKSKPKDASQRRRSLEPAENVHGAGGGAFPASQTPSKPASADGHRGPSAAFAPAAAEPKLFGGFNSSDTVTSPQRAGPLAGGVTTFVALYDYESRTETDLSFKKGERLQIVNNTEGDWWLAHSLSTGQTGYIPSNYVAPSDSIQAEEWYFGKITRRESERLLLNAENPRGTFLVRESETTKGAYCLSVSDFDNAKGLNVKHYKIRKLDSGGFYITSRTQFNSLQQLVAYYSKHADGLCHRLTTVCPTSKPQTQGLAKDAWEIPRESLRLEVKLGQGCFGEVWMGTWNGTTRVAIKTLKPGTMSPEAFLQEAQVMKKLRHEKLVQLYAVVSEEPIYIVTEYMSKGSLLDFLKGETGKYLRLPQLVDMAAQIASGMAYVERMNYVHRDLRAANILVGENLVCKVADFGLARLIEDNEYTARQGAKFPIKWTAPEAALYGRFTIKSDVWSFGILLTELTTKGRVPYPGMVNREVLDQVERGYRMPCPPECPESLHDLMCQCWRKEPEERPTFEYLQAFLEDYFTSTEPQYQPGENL
Summary of the method: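 Inhibition was read as 33P incorporation, counted on P30 filtermats, after a 40 min, 30° C reaction. Human c-Src acted on 100 μM Cdc2 peptide with 5 μM ATP (final), pH 7.0 MOPS/MgCl2. Values are percent inhibition at 2 μM compound, or IC50 where determined.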

Lyn kinase (human) = molecular target: T4, Lyn kinase (human) (Homo sapiens, UniProt P07948); assay: Lyn Kinase Assay; conditions: test concentration of 2 μM
T4 construct: purchased Upstate Biotechnology, Lake Placid, N.Y
T4 sequence (P07948 whole entry): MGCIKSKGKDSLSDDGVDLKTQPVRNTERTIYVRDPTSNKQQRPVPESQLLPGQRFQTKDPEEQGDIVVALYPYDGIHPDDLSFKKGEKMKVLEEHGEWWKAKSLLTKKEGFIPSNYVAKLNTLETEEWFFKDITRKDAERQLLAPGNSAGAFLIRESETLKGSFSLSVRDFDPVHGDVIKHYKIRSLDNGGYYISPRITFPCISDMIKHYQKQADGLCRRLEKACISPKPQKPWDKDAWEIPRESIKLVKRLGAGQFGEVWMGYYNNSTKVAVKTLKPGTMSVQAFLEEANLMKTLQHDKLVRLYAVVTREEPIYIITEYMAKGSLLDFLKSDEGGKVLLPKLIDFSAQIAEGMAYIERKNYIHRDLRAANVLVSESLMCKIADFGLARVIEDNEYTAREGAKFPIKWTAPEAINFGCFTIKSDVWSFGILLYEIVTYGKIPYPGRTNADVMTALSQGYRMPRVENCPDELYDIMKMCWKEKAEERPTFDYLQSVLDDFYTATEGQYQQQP
Protocol: A mixture of a 10× kinase buffer (500 mM MOPS at pH 7.5, 1 mM EGTA, 1 mM Sodium Vanadate, 1% β-mercaptoethanol and 100 mM Magnesium Acetate), ATP (5 μM final from a 10 mM stock), polyGluTyr (0.1 mg/mL final from a 1 mg/mL stock), γ-^33P ATP (10 μCl/μL stock) and water (for a total of 20 μL/well) was added to each well of a Streptavidin Flashplate.
Test compound in 100% DMSO (0.5 μL) was added to the appropriate wells. Diluted Lyn kinase (human)(Accession Number EMBL M16038) (Upstate Biotechnology, Lake Placid, N.Y.) (diluted in a buffer consisting of 50 mM Tris at pH 7.5, 0.1 mM EGTA, Sodium Vanadate (0.1 mM), β-mercaptoethanol (0.1%) and 1 mg/mL bovine serum albumin) (2.5 μL) was added to the wells to initiate the reactions.
The reaction plates were incubated at 30° C. for 40 min. The reaction was terminated by the addition of a 3% phosphoric acid solution (5 μL). The reaction product (10 μL) was spotted onto a P30 filtermat and washed for 5 minutes in phosphoric acid (75 mM). The wash sequence was repeated two more times, followed with one final wash in methanol. The plates were then dried, sealed and read on the TopCount scintillation counter after adding 30 μL scintillation fluid.
The Lyn inhibition values were derived according to the procedure described in Example 164 and are shown as percent in Table 3 at a test concentration of 2 μM. For those compounds with an IC50, the IC50 value in μM is shown in parentheses. For compounds with multiple test values, each value represents a separate assay result.

| SMILES | IC50 (EGFR) [nM] | IC50 (HER-2) [nM] | inhibition at 2 µM (c-Src kinase (human)) [%] | inhibition at 2 µM (Lyn kinase (human)) [%] | inhibition at 1 µM (HER-2) [%] | inhibition at 2 µM (EGFR) [%] |
| --- | --- | --- | --- | --- | --- | --- |
| Cc1ccc(Oc2ccc(N3C(=O)Nc4c(C(=O)Nc5ccc(CN6CCOCC6)cc5)sc5ncnc3c45)cc2C)cn1 [Cpd 119, 5-[3-methyl-4-(6-methyl-pyridin-3-yloxy)-phenyl]-4-oxo-4,5-dihydro-3H-1-thia-3,5,6,8-tetraaza-acenaphthylene-2-carboxylic acid (4-morpholin-4-ylmethyl-phenyl)-amide] | 1800 | 1090 | -17 | -47 | – | – |
| COc1cc(NC(=O)c2sc3ncnc4c3c2NC(=O)N4c2ccc(Cc3ccccc3)cc2)ccc1OCCN1CCCCC1 [Cpd 163, 5-(4-benzyl-phenyl)-4-oxo-4,5-dihydro-3H-1-thia-3,5,6,8-tetraaza-acenaphthylene-2-carboxylic acid [3-methoxy-4-(2-piperidin-1-yl-ethoxy)-phenyl]-amide] | 18 | 278 | 26 | 55 | – | – |
| O=C(NCCN1CCOCC1)c1sc2ncnc3c2c1NC(=O)N3c1ccc(Oc2ccccc2)cc1 [Cpd 105, 4-oxo-5-(4-phenoxy-phenyl)-4,5-dihydro-3H-1-thia-3,5,6,8-tetraaza-acenaphthylene-2-carboxylic acid (2-morpholin-4-yl-ethyl)-amide] | 110 | 3150 | 12 | -3 | – | – |
| COc1ccc(N2C(=O)Nc3c(C(=O)Nc4ccc(CN5CCOCC5)cc4)sc4ncnc2c34)cc1Cl [Cpd 122, 5-(3-chloro-4-methoxy-phenyl)-4-oxo-4,5-dihydro-3H-1-thia-3,5,6,8-tetraaza-acenaphthylene-2-carboxylic acid (4-morpholin-1-ylmethyl-phenyl)-amide] | 222 | 1440 | -9 | 3 | – | – |
| O=C(Nc1ccc(CN2CCOCC2)cc1)c1sc2ncnc3c2c1NC(=O)N3c1ccccc1Cl [Cpd 149, 5-(2-chloro-phenyl)-4-oxo-4,5-dihydro-3H-1-thia-3,5,6,8-tetraaza-acenaphthylene-2-carboxylic acid (4-morpholin-4-ylmethyl-phenyl)-amide] | 187 | 2540 | 54 | 72 | 53 | – |
| O=C(Nc1ccc(CN2CCCCC2)cc1)c1sc2ncnc3c2c1NC(=O)N3c1ccc(Cc2ccccc2)cc1 [Cpd 164, 5-(4-benzyl-phenyl)-4-oxo-4,5-dihydro-3H-1-thia-3,5,6,8-tetraaza-acenaphthylene-2-carboxylic acid (4-piperidin-1-ylmethyl-phenyl)-amide] | 11 | 103 | 25 | 35 | – | – |
| COc1cc(NC(=O)c2sc3ncnc4c3c2NC(=O)N4c2cc(OC)c(OC)c(OC)c2)ccc1OCC1CCCCO1 (centres unmarked) [Cpd 31, 5-(3,4,5-trimethoxy-phenyl)-4-oxo-4,5-dihydro-3H-1-thia-3,5,6,8-tetraaza-acenaphthylene-2-carboxylic acid [3-methoxy-4-(tetrahydro-pyran-2-ylmethoxy)-phenyl]-amide] | 42700 | – | 8 | -7 | 1 | – |
| COc1cc(N2C(=O)Nc3c(C(=O)Nc4ccc(OCCN5CCOCC5)c(OC)c4)sc4ncnc2c34)c(Cl)cc1Cl [Cpd 34, 5-(2,4-dichloro-5-methoxy-phenyl)-4-oxo-4,5-dihydro-3H-1-thia-3,5,6,8-tetraaza-acenaphthylene-2-carboxylic acid [3-methoxy-4-(2-morpholin-4-yl-ethoxy)-phenyl]-amide] | 5370 | – | 23 | 10 | -14 | – |
| COc1cc(N2C(=O)Nc3c(C(=O)Nc4ccc(OCC5CCCCO5)c(OC)c4)sc4ncnc2c34)c(Cl)cc1Cl (centres unmarked) [Cpd 45, 5-(2,4-dichloro-5-methoxy-phenyl)-4-oxo-4,5-dihydro-3H-1-thia-3,5,6,8-tetraaza-acenaphthylene-2-carboxylic acid [3-methoxy-4-(tetrahydro-pyran-2-ylmethoxy)-phenyl)-amide] | – | – | 17 | 29 | -25 | 14 |
| O=C(Nc1ccc(CN2CCOCC2)cc1)c1sc2ncnc3c2c1NC(=O)N3c1ccc2c(cnn2Cc2cccc(F)c2)c1 [Cpd 175, 5-[1-(3-fluoro-benzyl)-1H-indazol-5-yl]-4-oxo-4,5-dihydro-3H-1-thia-3,5,6,8-tetraaza-acenaphthylene-2-carboxylic acid (4-morpholin-4-ylmethyl-phenyl)-amide] | 130 | 515 | -1 | 0 | – | – |
| Cc1cccc(Cl)c1N1C(=O)Nc2c(C(=O)Nc3ccc(C(O)CN4CCOCC4)cc3)sc3ncnc1c23 (centres unmarked) [Cpd 148, 5-(2-chloro-6-methyl-phenyl)-4-oxo-4,5-dihydro-3H-1-thia-3,5,6,8-tetraaza-acenaphthylene-2-carboxylic acid [4-(1-hydroxy-2-morpholin-4-yl-ethyl)-phenyl]-amide] | – | – | 53 | 59 | 30 | 38 |
| O=C(Nc1ccc(CN2CCCCC2)cc1)c1sc2ncnc3c2c1NC(=O)N3c1ccc(F)c(Br)c1 [Cpd 155, 5-(3-bromo-4-fluoro-phenyl)-4-oxo-4,5-dihydro-3H-1-thia-3,5,6,8-tetraaza-acenaphthylene-2-carboxylic acid (4-piperidin-1-ylmethyl-phenyl)-amide] | 28 | 327 | 18 | 41 | 88 | – |
| COc1ccc(N2C(=O)Nc3c(C(=O)Nc4ccc(CCN5CCCCC5)cc4)sc4ncnc2c34)cc1Cl [Cpd 120, 5-(3-chloro-4-methoxy-phenyl)-4-oxo-4,5-dihydro-3H-1-thia-3,5,6,8-tetraaza-acenaphthylene-2-carboxylic acid [4-(2-piperidin-1-yl-ethyl)-phenyl]-amide] | 1080 | 11700 | -5 | 0 | – | – |
| O=C(Nc1ccc(CN2CCOCC2)cc1)c1sc2ncnc3c2c1NC(=O)N3c1ccc(Oc2ccccc2)c(Cl)c1 [Cpd 138, 5-(3-chloro-4-phenoxy-phenyl)-4-oxo-4,5-dihydro-3H-1-thia-3,5,6,8-tetraaza-acenaphthylene-2-carboxylic acid (4-morpholin-4-ylmethyl-phenyl)-amide] | 59 | 178 | 39 | 50 | – | – |
| O=C(Nc1ccc(CN2CCCCC2)cc1)c1sc2ncnc3c2c1NC(=O)N3c1ccc(N2CCOCC2)cc1 [Cpd 124, 5-(4-morpholin-4-yl-phenyl)-4-oxo-4,5-dihydro-3H-1-thia-3,5,6,8-tetraaza-acenaphthylene-2-carboxylic acid (4-piperidin-1-ylmethyl-phenyl)-amide] | – | > 100000 | 30 | 18 | – | 9 |
| O=C(O)c1sc2ncnc3c2c1NC(=O)N3c1ccc(Oc2ccccc2)c(F)c1 [Cpd 112, 5-(3-fluoro-4-phenoxy-phenyl)-4-oxo-4,5-dihydro-3H-1-thia-3,5,6,8-tetraaza-acenaphthylene-2-carboxylic acid] | 1030 | 5060 | -16 | 30 | – | – |
| O=C(NCCCO)c1sc2ncnc3c2c1NC(=O)N3c1ccc(Oc2ccccc2)c(Cl)c1 [Cpd 137, 5-(3-chloro-4-phenoxy-phenyl)-4-oxo-4,5-dihydro-3H-1-thia-3,5,6,8-tetraaza-acenaphthylene-2-carboxylic acid (3-hydroxy-propyl)-amide] | 30 | 1630 | 26 | 43 | 48 | – |
